Results as given in ChEMBL document CHEMBL2331098, “Unprecedented polyketides from a marine sponge-associated Stachylidium sp” (J Nat Prod, 2013).
Activity calls are given as the source filed them. The calls are words filed in the database; no cut-off is given here.

Assays:
[1] = test system: Mycobacterium tuberculosis; test: Antimicrobial activity against antibiotic-resistant Mycobacterium tuberculosis R46 at 50 ug/ml disc level; type: functional, organism-based
[2] = test system: Mycobacterium tuberculosis; test: Antimicrobial activity against antibiotic-resistant Mycobacterium tuberculosis MTB72 at 50 ug/ml disc level; type: functional, organism-based

## COCc1c(C(C)O)cc(O)c(C)c1OC (configuration not stated)
[1]
  Activity: inactive
[2]
  Activity: inactive
